Assay results: patent US20190246647A1, “COMPOSITIONS AND RELATED METHODS FOR MODULATING ENDOSYMBIONTS” (Flagship Pioneering Innovations V, Inc., priority 2017, published 2019)
“Also recorded” adds a separate entry of the source. {Cy3} = Cy3 dye attached by azide-DBCO click chemistry

What was measured:
Aphids LSR-1, A. pisum = assay: BCR-4 PNA microinjection: aphid survival and fecundity; assay type: in vivo, Acyrthosiphon pisum
Method: (§1) Microinjection was performed using NanoJet III Auto-Nanoliter Injector with an in-house pulled borosilicate needle (Drummond Scientific; Cat#3-000-203-G/XL). Aphids were transferred using a paint brush to a tubing system connected to vacuum which held them in place during the injection. The injection site was at the ventral thorax of the aphid. The injection solutions were water (negative control) or 321 ng/μl of BCR-4 PNA in water. The injection volume was 20 nl for adult (4th and 5th instar) aphids at a rate of 2 nl/sec. Each treatment group had approximately the same number of individuals injected from each of the collection plants. After injection, aphids were released into a petri dish onto fava bean leaves that had stems in an Eppendorf tube filled with 1 ml water. Survival and fecundity were monitored over the course of the experiment.
Aphids LSR-1 (which harbor only Buchnera), A. pisum were grown on fava bean plants (Vroma vicia faba from Johnny's Selected Seeds) in a climate-controlled incubator (16 h light/8 h dark photoperiod; 60±5% RH; 25±2° C.). Prior to being used for aphid rearing, fava bean plants were grown in potting soil at 24° C. with 16 h of light and 8 h of darkness. To limit maternal effects or health differences between plants, 5-10 adults from different plants were distributed among 10 two-week-old plants, and allowed to multiply to high density for 5-7 days. For experiments, fourth and fifth instar aphids were collected from healthy plants and divided into two treatment groups: 1) water (negative control) or 2) BCR-4 PNA in water.

Buchnera = assay: BCR-4 PNA leaf perfusion: Buchnera/aphid copies by qPCR; assay type: in vivo; details: for effect on Buchnera titers: vs water
Method: After 5 and 6 days of treatment, DNA was extracted from dead aphids from each treatment group. Briefly, the aphid body surface was sterilized by dipping the aphid into a 6% bleach solution for approximately 5 seconds. Aphids were then rinsed in sterile water and DNA was extracted from each individual aphid using a DNA extraction kit (Qiagen, DNeasy kit) according to manufacturer's instructions. DNA concentration was measured using a nanodrop nucleic acid quantification, and Buchnera and aphid DNA copy numbers were measured by qPCR. The primers used for Buchnera were Buch_groES_18F ([…]; SEQ ID NO: 101) and Buch_groES_98R ([…]; SEQ ID NO: 102) (Chong and Moran, 2016 PNAS). The primers used for aphid were ApEF1a 107F ([…]; SEQ ID NO: 103) and ApEF1a 246R ([…]; SEQ ID NO: 104) (Chong and Moran, 2016 PNAS). qPCR was performed using a qPCR amplification ramp of 1.6 degrees C./s and the following conditions: 1) 95° C. for 10 minutes, 2) 95° C. for 15 seconds, 3) 55° C. for 30 seconds, 4) repeat steps 2-3 40×, 5) 95° C. for 15 seconds, 6) 55° C. for 1 minute, 7) ramp change to 0.15 degrees C./s, 8) 95° C. for 1 second. qPCR data was analyzed using analytic (Thermo Fisher Scientific, QuantStudio Design and Analysis) software.

[1] = tested on: Aphids (LSR-1 strain, Acyrthosiphon pisum); assay: BCR-4 PNA leaf perfusion: aphid survival and development; assay type: in vivo; details: for effect on aphid development / effect on aphid mortality: leaf perfusion, vs water
Method: Aphids (LSR-1 strain, Acyrthosiphon pisum) were grown on fava bean plants (Vroma vicia faba from Johnny's Selected Seeds) in a climate-controlled incubator (16 h light/8 h dark photoperiod; 60±5% RH; 25±2° C.). Prior to being used for aphid rearing, fava bean plants were grown in potting soil at 24° C. with 16 h of light and 8 h of darkness. To limit maternal effects or health differences between plants, 5-10 adults from different plants were distributed among 10 two-week-old plants and allowed to multiply to high density for 5-7 days. For experiments, first and second instar aphids were collected from healthy plants and divided into two different treatment groups: 1) those allowed to feed on leaves perfused with water, and, 2) those allowed to feed on leaves perfused with a BCR-4 PNA solution in water.
For each leaf perfusion, approximately 1 ml of water (negative control) or a 1 uM BCR-4 PNA solution was injected into a fava bean leaf. The stem of the leaf was then placed in a 1.5 ml Eppendorf that was sealed with parafilm. The leaf stem was then placed into a deep petri dish (Fisher Scientific, Cat# FB0875711) and aphids were applied to the leaves of the plant and allowed to feed. Old leaves were replaced with new, freshly injected leaves every 2-3 days throughout the experiment. For each treatment, 60 aphids were placed onto each leaf. Aphids were monitored daily for survival and dead aphids were removed when they were discovered. In addition, the developmental stage (1st, 2nd, 3rd, 4th, and 5th instar) was determined daily throughout the experiment.

BCR-4 [2] = assay: BCR-4 PNA microinjection: BCR-4 expression by RT-qPCR; assay type: in vivo, Acyrthosiphon pisum; details: after 7 days
Method: as §1
Aphids LSR-1 (which harbor only Buchnera), A. pisum were grown on fava bean plants (Vroma vicia faba from Johnny's Selected Seeds) in a climate-controlled incubator (16 h light/8 h dark photoperiod; 60±5% RH; 25±2° C.). […]
After 7 days of treatment, RNA was extracted from the remaining aphids in each treatment group. […] RNA concentrations were measured using a nanodrop nucleic acid quantification. BCR-4 relative expression was measured by RT-qPCR. […] RT-qPCR data was analyzed using analytic (Thermo Fisher Scientific, QuantStudio Design and Analysis) software.

BCR-4 [3] = assay: BCR-4 PNA leaf perfusion: BCR-4 expression by RT-qPCR; assay type: in vivo, Acyrthosiphon pisum; details: for effect on BCR-4 expression: day 7, vs water
Method: After 7 days of treatment, RNA was extracted from the remaining aphids in each treatment group. Briefly, the aphid body surface was sterilized by dipping the aphid into a 6% bleach solution for approximately 5 seconds. Aphids were then rinsed in sterile water and total RNA was extracted from each individual aphid using the RNA extraction kit (Qiagen miRNeasy kit) according to manufacturer's instructions. RNA concentrations were measured using a nanodrop nucleic acid quantification. BCR-4 relative expression was measured by RT-qPCR. The primers used were ApBCR-4F ([…]; SEQ ID NO: 107) and ApBCR-4R ([…]; SEQ ID NO: 108). The internal reference gene primers were for Actin (housekeeping gene). The forward sequence was […]; SEQ ID NO: 109 and the reverse sequence was […]; SEQ ID NO: 110. RT-qPCR was performed using a qPCR amplification ramp of 1.6 degrees C./s and the following conditions: 1) 48° C. for 30 min, 2) 95° C. for 10 minutes, 3) 95° C. for 15 seconds, 4) 60° C. for 1 minute, 5) repeat steps 3-4 40×, 6) 95° C. for 15 seconds, 7) 60° C. for 1 minute, 8) ramp change to 0.15 degrees C./s, 9) 95° C. for 1 second. RT-qPCR data was analyzed using analytic (Thermo Fisher Scientific, QuantStudio Design and Analysis) software.
At 7 post-treatment, RNA was extracted from live aphids and RT-pPCR was done as described above (see Microinjection Delivery Experimental Design) to quantify expression of BCR-4.

[4] = tested on: its target bacterial strains; details: cited from earlier work
Myzus persicae [5] = assay: Cy3-PNA in artificial diet: aphid survival; assay type: in vivo; details: 0.5 to 10 mg/L in artificial diet; paper example
Method: Cy3-PNA solutions are formulated with 0, 0.5, 1, 5 or 10 mg/L of Cy3-PNA from Example 11 in 10 mL of 0.5% sucrose and essential amino acids.
(§2) To prepare for the treatment, aphids are grown in a lab environment and medium. In a climate-controlled room (16 h light photoperiod; 60±5% RH; 20±2° C.), plants are grown in a mixture of vermiculite and perlite and are infested with aphids. To limit maternal effects or health differences between plants, 5-10 adults from different plants are distributed among 10 two-week-old plants, and allowed to multiply to high density for 5-7 days. For experiments, second and third instar aphids are collected from healthy plants and divided into treatments so that each treatment receives approximately the same number of individuals from each of the collection plants.
Wells of a 96-well plate are filled with 200 μl of artificial aphid diet (Febvay et al., Canadian Journal of Zoology 66(11):2449-2453, 1988) and the plate is covered with parafilm to make a feeding sachet. Artificial diet is either mixed with the solution of sterile water with 0.5% sucrose and essential amino acids only as a negative control, or mixed with Cy3-PNA solutions. Cy3-PNA solutions are mixed with artificial diet to obtain final concentrations between 0.5 to 10 mg/L. […]

Myzus persicae [6] = assay: Bcr1 dsRNA in artificial diet: aphid survival; assay type: in vivo; details: 0.5 to 5 μg/ml in artificial diet; paper example
Method: dsRNA solutions are formulated with 0 (negative control), 0.5, 1, or 5 μg/mL of Bcr1 dsRNA from Example 7 in 10 mL of TE buffer with 0.5% sucrose and essential amino acids.
as §2, with “(16 hr” for “(16 h”
(§3) Wells of a 96-well plate are filled with 200 μl of artificial aphid diet (Febvay et al., Canadian Journal of Zoology 66(11):2449-2453, 1988) and the plate is covered with parafilm to make a feeding sachet. […]

Rhopalosiphum maidis = assay: Bcr1 dsRNA in artificial diet: aphid survival; assay type: in vivo; details: 0.5 to 5 μg/ml in artificial diet; paper example
Method: dsRNA solutions are formulated with 0 (negative control), 0.5, 1, or 5 μg/ml of Bcr1 dsRNA from Example 2 in 10 mL of TE buffer with 0.5% sucrose and essential amino acids.
as §2, with “C.), fava bean” for “C.),”
as §3

[7] = vs water, listed as PNA to BCR-4

YGRKKRRQRRR-CGTACAATAATCTCATGG (PNA against BCR-4; UniProt P04608 47-57, looked up, fragment) [BCR-4 PNA, peptide nucleic acid (PNA) to BCR-4 fused to a cell penetrating peptide (Tat)]
offspring produced per adult (Aphids LSR-1, A. pisum; at 3 and 7 days post-treatment): 4 offspring/adult | effect on aphid fecundity (Aphids LSR-1, A. pisum; vs water): slight decrease in aphid fecundity | effect on aphid fecundity (Aphids LSR-1, A. pisum; [7]): decreased fecundity | effect on aphid survival (Aphids LSR-1, A. pisum; [7]): slight decrease in survival; also recorded: decrease in insect survival | mean ratio Buchnera/aphid copies (Buchnera; dead aphids collected 5 and 6 days post-treatment): approximately 57 | effect on Buchnera titers (Buchnera): increased Buchnera titers | effect on Buchnera titers (Buchnera; listed as PNA to BCR-4): misbalance in Buchnera titers | aphids in the 3rd instar stage ([1]; leaf perfusion 1 uM, day 2 post-treatment, first and second instar aphids): 8% | aphids alive ([1]; leaf perfusion 1 uM, day 7): 30% | effect on aphid development [1]: delayed aphid development | effect on aphid mortality [1]: increased aphid death | effect on aphid development ([1]; listed as PNA to BCR-4): slowed aphid development | effect on aphid mortality ([1]; listed as PNA to BCR-4): increased aphid mortality | expression of BCR-4, water-injected fold higher than BCR-4 PNA-injected (BCR-4 [2]; microinjection 20 nl of 321 ng/μl, 4th and 5th instar): approximately 2 fold | effect on BCR-4 expression (BCR-4 [2]; microinjection, vs water): knockdown of BCR-4; also recorded: reduced BCR-4 expression | effect on BCR-4 expression (BCR-4 [3]): reduction of BCR-4 expression | effect on BCR-4 expression (BCR-4 [3]; listed as PNA to BCR-4): knocked down BCR-4 expression | median transcript levels of BCR-4, fold lower than water (BCR-4 [3]; living aphids after 7 days): approximately 3 fold

nisin
concentration showing antimicrobial activity [4]: single-digit nanomolar concentration

Cy3-gaatgcagctgc (antisense GAATGCAGCTGC; all peptide nucleic acid (PNA), 5' {Cy3}) [Bcr1 specific Cy3-PNA, antisense PNA against Bcr1 joined to Cy3 dye through click chemistry]
survival rate of aphids vs control (Myzus persicae [5]): decreased

B1: Bcr1 dsRNA: dsRNA hairpin targeting Bcr1 gene (ACYPI32128), SEQ ID NO: 93 (nucleic acid, listed as Acyrthosiphon pisum)
chain: AUGAAACUGCUGCAUGGCUUUCUGAUUAUUAUGCUGACCAUGCAUCUGAGCAUUCAGUAUGCGUAUGGCGGCCCGUUUCUGACCAAAUAUCUGUGCGAUCGCGUGUGCCAUAAACUGUGCGGCGAUGAAUUUGUGUGCAGCUGCAUUCAGUAUAAAAGCCUGAAAGGCCUGUGGUUUCCGCAUUGCCCGACCGGCAAAGCGAGCGUGGUGCUGCAUAACUUUCUGACCAGCCCGUUUUUUUUUUCGGGCUGGUCAGAAAGUUAUGCAGCACCACGCUCGCUUUGCCGGUCGGGCAAUGCGGAAACCACAGGCCUUUCAGGCUUUUAUACUGAAUGCAGCUGCACACAAAUUCAUCGCCGCACAGUUUAUGGCACACGCGAUCGCACAGAUAUUUGGUCAGAAACGGGCCGCCAUACGCAUACUGAAUGCUCAGAUGCAUGGUCAGCAUAAUAAUCAGAAAGCCAUGCAGCAGUUUCAU
survival rate of aphids vs control (Myzus persicae [6]): decreased | survival rate of aphids vs control (Rhopalosiphum maidis): decreased
